Reference: patent publication US12318393B2, “Modulators of orphan nuclear receptors for NASH and other metabolic disorders” (Emory University, priority 2018, dated 2025)

How the values were obtained:
[1] = system: high-fat-fed C57BL/6 mice; assay: High-fat-diet C57BL/6 mice, Compound 1 7.5 mg/kg with antagomiR-control or antagomiR-122; format: in vivo
Experimental: C57BL/6 mice were fed a 50% high fat diet (HFD) for four weeks. The control cohort received three hydrodynamic tail vein injections of a 5 μg antagomiR-control and six i.p injections of saline over three weeks. A second cohort was hydrodynamic tail vein injected with 5 μg antagomiR-122 (the reverse complement that inhibits activity of miR-122) three times and i.p injections of saline six times over three weeks. A third cohort was injected i.p. with Compound 1 (7.5 mg/kg) twice a week plus antagomiR-control once a week over the course of 3 weeks. The final cohort was injected i.p. with Compound 1 (7.5 mg/kg) twice a week plus antagomiR-122 injections once a week over the course of 3 weeks.
High Fat diet fed mice. C57BL/6 male mice were fed for 8 weeks a 50% high fat diet (Envigo, DIETTD150235). All mice were kept in a pathogen-free facility, under a 12 h light/dark cycle. Research on mice was approved by the Hebrew University Institutional Animal Care and Ethics Committee.
Compound 1 and AntagomiR injections to mice. C57BL/6 male mice, 7-8 weeks old, or Sgp130FC, 9-month-old male mice, were injected i.p. with 7.5 mg/kg Compound 1 dissolved in saline and 3% DMSO. Saline was injected as control. Mice were hydrodynamic tail vain injected with antagomiR-122 or antagomiR-control (negative control) (5 μg/mouse in 1.5 ml saline). Mice were sacrificed according to the legend of the figure describing the experimental results and the livers, white adipose and skeletal muscle tissues were frozen in liquid nitrogen or in OCT embedded frozen blocks, for further RNA and histologic analysis. AntagomiRs were obtained from Sigma Aldrich, see Table 3.
Triglycerides and β-hydroxybutyrate quantification. To determine the liver and muscle lipid content, muscle and liver tissues (40-80 mg) were homogenized in 0.5 ml of chloroform: Tris solution (v/v, 1:1), the homogenate was transferred to 1 ml of chloroform: methanol solution (v/v, 2:1) centrifuged at 3000 rpm for 10 min. The organic phase was mixed with 5% Triton X100 in chloroform, dried and re-dissolved in water. After lipid extraction, TG concentration in samples was measured with Triglyceride Quantification Kit (BioVision), according to the manufactures instructions. β-hydroxybutyrate was determined utilizing commercial colorimetric kits (BioVision) directly from plasma samples.
In an effort to determine whether the mechanism of action of miR-122 and Compound 1 are aligned at the same pathway, an experiment was designed in which both molecules, together and each separately, were administered. In this study, mice were fed with a 50% HFD and therapy was initiated 4 weeks after the animals were already on a diet, to establish NASH prior to treatment. Therapies (antagomiRs given once a week, due to a prolonged half time, and RS twice weekly, due to a plasma t/2 of 2.7 hrs) were initiated after 4 weeks and given for 3 weeks. The mice were weighed from week 3 and therapies initiated a week later. […] The liver was further analyzed to assess lipotoxicity. […] A surrogate marker for energy expenditure, β-hydroxybutyrate, was also measured. A reduction in energy expenditure is associated with reduced miR-122, and energy expenditure increased upon treating with Compound 1.
Male C57BL/6J mice, 7 to 8 weeks old, were housed randomly in standard cages and were fed a HFD, or atherogenic diet (consisting 1% Chol and 0.5% cholic acid, see also Table 3). All mice had free access to water during the experimental period. During the feeding period body weight was monitored every 3 days. In the HFD experiment, after 4 or 6 weeks, the resultant obese mice were treated with antagomiR-122 ([…] once a week for 3 weeks), or i.p. injected with Compound 1 (RORα agonist, 7.5 mg/kg twice a week for 3 weeks; or 15 mg/kg 3 times a week for 3 weeks). The obese control (HFD) group was administered only saline with DMSO and antagomiR-control. […]

[2] = system: miR-122; assay: Expression of RORα-regulated microRNA in Huh-7 cells (qRT-PCR); format: cell-based, human; settings: 1 μM, 24 hours
Experimental: Secreted microRNA levels in the medium of Huh-7 cells were analyzed by qRT-PCR and were normalized to spiked C. elegans miR-39. miR-18 and miR-93 served as controls for secreted microRNA and were not affected following Compound 1 addition.
RNA extraction and quantitative Real-Time PCR analysis. Total RNA, including small RNAs, were isolated from 200 μL of plasma or culture media samples using the miRNeasy Mini kit (Qiagen, Valencia, CA, USA) with 2 minor modifications. First, 200 μl of plasma or culture media were lysed with 1 ml of Qiazol solution. Second, a 50 pmol/l of synthesized single strand Caenorhabditis elegans miRNA (cel-miR-39) was added as the spike-in control to monitor extraction efficiency. The remainder of the RNA extraction was performed according to the manufacturer's instructions. miRNAs were eluted with 30 μl of RNase-free water. […] The fold expression and statistical significance were calculated using the 2-ΔΔ Ct method. […]

With `O=C1Nc2cc(C(=O)N3CCC(Cc4ccccc4)CC3)ccc2Nc2ccccc21` [Compound 1] the “body weight, co-administration with antagomir-122” value ([1]; 7.5 mg/kg i.p. twice a week plus antagomiR-122 once a week, 3 weeks) was “did not decrease”, the “body weight at the end of the experiment compared to the control group” value ([1]; 7.5 mg/kg i.p. twice a week plus antagomiR-control, 3 weeks) was “statistically lower” and the “secretion of miR-122 (plasma)” value ([1]; 7.5 mg/kg i.p. twice a week, 3 weeks) was “enhanced”. For the same molecule, the “TG content in the muscle” value ([1]; 50% HFD, treatment for 3 weeks) was “decreased”, the “energy expenditure (surrogate marker β-hydroxybutyrate)” value ([1]; 50% HFD, treatment for 3 weeks) was “increased” and the “hepatic lipid droplets and TG content” value ([1]; 50% HFD, treatment for 3 weeks) was “reduced”. The “secreted miR-18 and miR-93 levels in medium (control microRNAs)” value [2] was “not affected” and the “secretion of miR-122 (relative microRNA levels in Huh7 medium)” value ([2]; vs DMSO) was “specifically increases”.
